Article PMC9925432, “Thioquinoline derivatives conjugated to thiosemicarbazide as potent tyrosinase inhibitors with anti-melanogenesis properties” (Scientific Reports, 2023)
Read-outs that look alike come from different tables or passages of the source.

How the values were obtained:
[1] = MTT assay for cell viability, HEK 293; assay type: cell-based; settings: human, HEK 293 cells, 48 h, MTT, mean ± S.E.M.; for viability at 48 h, 16 µM: HEK 293, 16 µM; for viability at 48 h, 32 µM: HEK 293, 32 µM; for viability at 48 h, 64 µM: HEK 293, 64 µM
Description: (§1) The cytotoxic activity of all derivatives against the HEK 293 cell line and 10g against A375 (at a density of 5 × 10^3 cells/ml) using 3-(4,5-dimethylthiazol-2-yl)-2,5- diphenyltetrazolium bromide (MTT) assay were performed. Cells were grown at 37 °C in the presence of CO2 5% in DMEM (Gibco BRL, Grand Island, NY, USA), 10% fetal bovine serum (FBS, Gibco BRL), and penicillin/streptomycin (100 IU/mL and 100 µg/mL, respectively). Next cells were seeded in a 96-well plate and incubated at 37 ^∘C with derivatives at different concentrations for 48 h. Following the treatment, cells were incubated with MTT (0.5 mg/ml) at 37 ^∘C for 3 h. The MTT-containing medium was then removed, and 100 μl of DMSO was added to each well, mixed thoroughly with a 10 min shake to dissolve formazan crystals. The absorbance of each well was measured at 540 nm[33].

[2] = molecular target: T1, Mushroom tyrosinase (EC 1.14.18.1) (Agaricus bisporus, UniProt C7FF04); assay: Tyrosinase inhibitory assay (colorimetric, diphenolase activity, L-Dopa); assay type: biochemical; settings: for IC50: L-Dopa as substrate, means ± RSD of 3 independent experiments
T1 construct: purchased Sigma Chemical Co
T1 sequence (C7FF04 1-392 limits assumed): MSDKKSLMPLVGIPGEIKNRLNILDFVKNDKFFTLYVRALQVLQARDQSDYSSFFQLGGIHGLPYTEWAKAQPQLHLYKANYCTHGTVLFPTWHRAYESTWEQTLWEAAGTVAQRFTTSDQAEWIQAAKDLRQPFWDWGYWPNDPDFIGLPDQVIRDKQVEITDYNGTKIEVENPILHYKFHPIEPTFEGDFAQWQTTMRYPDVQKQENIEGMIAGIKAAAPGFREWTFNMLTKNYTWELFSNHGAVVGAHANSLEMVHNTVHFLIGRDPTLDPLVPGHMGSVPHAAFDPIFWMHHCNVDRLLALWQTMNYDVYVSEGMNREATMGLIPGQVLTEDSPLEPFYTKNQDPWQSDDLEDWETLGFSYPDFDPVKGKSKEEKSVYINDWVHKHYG
Description: Mushroom tyrosinase (EC 1.14.18.1) (Sigma Chemical Co.) was assayed using L-Dopa as the substrate as reported in our previous studies with some modifications[30]–[32]. The enzyme diphenolase activity was monitored spectrophotometrically by observing dopachrome formation at 490 nm. All the test samples were first dissolved in DMSO at 10 mM and diluted to the required concentrations. Initially, in a 96-well microplate, 10 µl of test samples were added to 160 µl of 50 mM phosphate buffer (pH = 6.8) and then 10 µl tyrosinase (500 U mL^−1) was added. After the mixture was pre-incubated at 28 °C for 20 min, 20 µl of L-Dopa solution (7 mM) was added to the mixture. After 10 min incubation absorbance of samples was measured. DMSO without test compounds was used as the control, and kojic acid was used as a positive control. Each assay was conducted as three separate replicates. The inhibitory activity of the tested compounds was expressed as the concentration that inhibited 50% of the enzyme activity (IC50). […]

[3] = test system: HEK 293 cell line; assay: MTT assay for cell viability, HEK 293; assay type: cell-based; settings: for Cell viability (%): HEK 293, 32 µM, 48 h, MTT, mean ± S.E.M., 32 µM
Description: as §1

[4] = molecular target: mushroom tyrosinase; settings: cited from earlier work

Structure (SMILES) | melting point | viability at 48 h, 16 µM [1] | viability at 48 h, 32 µM [1] | viability at 48 h, 64 µM [1] | IC50 [2] | Cell viability (%) [3] | fold improvement in the potency compared to 10a ([2]; ratio of tyrosinase IC50 values) | IC50 ([3]; Homo sapiens, HEK293, HEK 293, MTT, read-out: IC50 (positive control)) | IC50 ([4]; L-Dopa as substrate) | IC50 ([4]; L-tyrosine as substrate) | IC50 ([4]; tyrosinase)
NC(=S)N/N=C/c1cc2ccccc2nc1SCC(=O)Nc1ccccc1 [Compound 10a, (E)-2-((3-((2-carbamothioylhydrazineylidene)methyl)quinolin-2-yl)thio)-N-phenylacetamide] | 180 to 182 °C | 90.19 ± 0.89% | 72.2 ± 2.13% | 65.8 ± 1.99% | 155 µM |  |  |  |  |  | 
Cc1ccc(NC(=O)CSc2nc3ccccc3cc2/C=N/NC(N)=S)cc1 [Compound 10b, (E)-2-((3-((2-carbamothioylhydrazono)methyl)quinolin-2-yl)thio)-N-(p-tolyl)acetamide] | 180 to 185 °C | 96.2 ± 2.58% | 81.5 ± 2.91% |  | ≥ 200 µM |  |  |  |  |  | 
CCc1ccc(NC(=O)CSc2nc3ccccc3cc2/C=N/NC(N)=S)cc1 [Compound 10c, (E)-2-((3-((2-carbamothioylhydrazono)methyl)quinolin-2-yl)thio)-N-(4-ethylphenyl)acetamide] | 178 to 180 °C | 82.55 ± 0.5% | 69.3 ± 1.81% | 58.3 ± 1.03% | 85.3 µM |  |  |  |  |  | 
Cc1cccc(NC(=O)CSc2nc3ccccc3cc2/C=N/NC(N)=S)c1C [Compound 10d, (E)-2-((3-((2-carbamothioylhydrazono)methyl)quinolin-2-yl)thio)-N-(2,3-dimethylphenyl)acetamide] | 185 to 187 °C | 87.52 ± 0.65% | 79.12 ± 0.62% | 71.4 ± 2.97% | 101 µM |  |  |  |  |  | 
COc1ccc(NC(=O)CSc2nc3ccccc3cc2/C=N/NC(N)=S)cc1 [Compound 10e, (E)-2-((3-((2-carbamothioylhydrazineylidene)methyl)quinolin-2-yl)thio)-N-(4-methoxyphenyl)acetamide] | 191 to 193 °C | 85.6 ± 1.08% | 71.2 ± 3.86% | 62 ± 4.15% | 47.4 µM |  |  |  |  |  | 
NC(=S)N/N=C/c1cc2ccccc2nc1SCC(=O)Nc1ccc([N+](=O)[O-])cc1 [Compound 10f, (E)-2-((3-((2-carbamothioylhydrazineylidene)methyl)quinolin-2-yl)thio)-N-(4-nitrophenyl)acetamide] | 180 to 182 °C | 97.67 ± 0.55% | > 85% | 80 ± 2.05% | 39.8 µM | 88.12 ± 4.05% |  |  |  |  | 
NC(=S)N/N=C/c1cc2ccccc2nc1SCC(=O)Nc1ccc(Cl)cc1Cl [Compound 10h, (E)-2-((3-((2-carbamothioylhydrazono)methyl)quinolin-2-yl)thio)-N-(2,4-dichlorophenyl)acetamide] | 188 to 190 °C | 96.9 ± 1.59% | 78.7 ± 2.19% | 67.9 ± 3.21% | 169 µM |  |  |  |  |  | 
NC(=S)N/N=C/c1cc2ccccc2nc1SCC(=O)Nc1ccccc1Br [Compound 10j, (E)-N-(2-bromophenyl)-2-((3-((2-carbamothioylhydrazono)methyl)quinolin-2-yl)thio)acetamide] |  | 91.2 ± 4.35% | > 85% | 79.9 ± 3.16% | ≥ 200 µM | 88.65 ± 2.31% |  |  |  |  | 
NC(=S)N/N=C/c1cc2ccccc2nc1SCC(=O)NCc1ccccc1 [Compound 10k, (E)-N-benzyl-2-((3-((2-carbamothioylhydrazono)methyl)quinolin-2-yl)thio)acetamide] | 183 to 185 °C | 77.3 ± 2.55% | 65.4 ± 3.49% | 51.1 ± 1.06% | 62 µM |  | around 2.5 fold |  |  |  | 
Cc1ccc(CNC(=O)CSc2nc3ccccc3cc2/C=N/NC(N)=S)cc1 [Compound 10l, (E)-2-((3-((2-carbamothioylhydrazineylidene)methyl)quinolin-2-yl)thio)-N-(4-methylbenzyl)acetamide] | 180 to 182 °C | 75.1 ± 1.99% | 62.6 ± 1.58% | 50 ± 0.88% | 78.5 µM |  |  |  |  |  | 
NC(=S)N/N=C/c1cc2ccccc2nc1SCC(=O)NCc1ccc(F)cc1 [Compound 10m, (E)-2-((3-((2-carbamothioylhydrazono)methyl)quinolin-2-yl)thio)-N-(4-fluorobenzyl)acetamide] | 186 to 188 °C | 95.5 ± 2.97% | > 85% | 71.2 ± 5.42% | 53.3 µM | 86.44 ± 1.17% |  |  |  |  | 
COc1cccc2c1C(=O)c1c(O)c3c(c(O)c1C2=O)C[C@@](O)(C(=O)CO)C[C@@H]3O[C@H]1C[C@H](N)[C@H](O)[C@H](C)O1 [Doxorubicin, reference compound] |  |  |  |  |  |  |  | 1.3 µM |  |  | 
NC(=S)N/N=C/c1ccc(OCc2cn(CC(=O)NCc3ccccc3)nn2)cc1 [G] |  |  |  |  |  |  |  |  | 0.17 µM | 0.11 µM | 
OC[C@H]1O[C@@H](Oc2ccc(O)cc2)[C@H](O)[C@@H](O)[C@@H]1O [arbutin] |  |  |  |  |  |  |  |  |  |  | 180 µM
